Tests used:
[1] = Octanol/water partition coefficient (logP); format: physicochemical; conditions: 111In-labeled tracer, separate experiment 2 of 3, N = 3, method as ref 22
Experimental: The logP value of each compound was determined in three separate experiments as described previously.

in vitro = in vitro ADME; conditions: human, whole blood
Experimental: ^111[…], or ^111In-co(NGR)4 was added to […] human blood in heparin (BD Biosciences, […], The Netherlands). Blood stability was tested at 0, 10, 30, and 50 min. For each time point imaging agents were separated from blood cells and proteins by adding 0.5 mL MeCN (VWR International BV, Breda, The Netherlands) to 0.5 mL blood sample followed by centrifugation (2,000 ×g, 3 min). Supernatant samples were analyzed by HPLC using the above-mentioned method.

[2] = set-up: species or system Swiss mice; conditions: mouse, in vivo
Experimental: (§1) In 10–12-week-old male Swiss mice, we induced MI by ligation of the left anterior descending coronary artery (LAD) as described before to test coNGR (n = 5) or co(NGR)4 (n = 8). A group of sham-operated Swiss mice (n = 5) was used as control. SPECT imaging was performed 7 days after MI or sham surgery. All animals were held under the guidelines of the animal care facility (Maastricht University). All animal experiments were approved by the Committee for Animal Welfare of Maastricht University. After imaging, the vital organs were harvested and kept for gamma-counting (Wallac Wizard, Turku, Finland). Acquired data were expressed as percentage injected dose per gram tissue (% ID/g).

CD13 = molecular target: T1, CD13 (Mus musculus, UniProt P97449); experiment: Dual-isotope micro-SPECT, SUV of 111In-labeled NGR tracers in heart segments of MI mice; format: in vivo, Swiss mice; conditions: MI mice 7 days after LAD ligation, mean ± SEM
T1 construct: the level of CD13 expression was markedly higher in the infarcted myocardium of MI animals; from tissue; host or cells: heart (myocardium) of living Swiss mice, 7 days after MI
T1 sequence (P97449 1-966): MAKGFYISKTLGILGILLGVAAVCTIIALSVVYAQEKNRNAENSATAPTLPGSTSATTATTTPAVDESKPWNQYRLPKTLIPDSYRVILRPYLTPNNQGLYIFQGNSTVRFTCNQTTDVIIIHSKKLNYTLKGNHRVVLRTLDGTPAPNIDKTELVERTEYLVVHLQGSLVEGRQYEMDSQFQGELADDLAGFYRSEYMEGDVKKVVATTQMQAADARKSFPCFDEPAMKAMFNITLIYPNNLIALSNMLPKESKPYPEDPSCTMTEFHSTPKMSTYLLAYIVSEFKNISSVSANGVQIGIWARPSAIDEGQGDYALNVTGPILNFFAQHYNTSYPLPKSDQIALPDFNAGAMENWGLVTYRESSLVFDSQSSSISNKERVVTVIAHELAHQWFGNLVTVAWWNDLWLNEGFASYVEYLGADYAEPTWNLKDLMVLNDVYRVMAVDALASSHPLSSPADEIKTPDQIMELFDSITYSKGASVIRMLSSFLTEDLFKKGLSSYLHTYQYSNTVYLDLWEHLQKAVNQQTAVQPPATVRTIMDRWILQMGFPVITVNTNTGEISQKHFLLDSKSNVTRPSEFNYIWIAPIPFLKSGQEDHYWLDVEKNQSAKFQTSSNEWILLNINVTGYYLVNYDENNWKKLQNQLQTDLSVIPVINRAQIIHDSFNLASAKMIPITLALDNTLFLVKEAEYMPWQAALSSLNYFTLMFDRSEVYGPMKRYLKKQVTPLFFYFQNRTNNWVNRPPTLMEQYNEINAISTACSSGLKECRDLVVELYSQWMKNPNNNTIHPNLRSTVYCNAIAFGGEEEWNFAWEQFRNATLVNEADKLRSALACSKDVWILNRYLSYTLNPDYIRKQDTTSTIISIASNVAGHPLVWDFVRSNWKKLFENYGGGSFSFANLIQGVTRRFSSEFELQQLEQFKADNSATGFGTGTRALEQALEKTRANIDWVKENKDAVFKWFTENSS
Experimental: as §1, with “University.” for “University. After imaging, the vital organs were harvested and kept for gamma-counting (Wallac Wizard, Turku, Finland). Acquired data were expressed as percentage injected dose per gram tissue (% ID/g).”
Mice were anesthetized with isoflurane (induction 2.5%; maintenance 1.5%), a catheter was placed in a tail vein, and animals were positioned in the SPECT camera (MILabs, Utrecht, The Netherlands). Prior to image acquisition, a bolus injection of ^99mTc-sestamibi and ^111In-coNGR or ^111In-co(NGR)4 was given intravenously (i.v.) in a maximum volume of 200 µL. Table S1 in Supplementary Material available online at https://doi.org/10.1155/2017/8638549 provides an overview of the average injected dose. Immediately after injection, 4 consecutive time frames of 15 min each were acquired. For image quantification we used the last of these frames.
Acquired list mode data was reconstructed using MILabs reconstruction software (version 2.51) employing the POS-EM algorithm (6 iterations and 16 subsets, reconstructed at a voxel size of 0.4 mm). ^99mTc and ^111In images were reconstructed by selecting photo peak and background energy levels as described before.
To allow quantification of imaging agent uptake, in vivo isotope-specific conversion factors (CF) were determined for the 0.6 mm collimator in a representative phantom with a known activity. Using the previously described method the following conversion factors (CF), CF99mTc 612 MBq/mL and CF111In 643 MBq/mL, were found.
PMOD 3.7 cardiac tool PCARD (PMOD technologies, Zürich, Switzerland) was used to segment the heart in the 17-segment model. Uptake per segment was subsequently expressed as a mean standardized uptake value (SUVmean), also using the previously described method. For body weight, we assumed that 1 g equalled 1 mL.

[3] = 111In tracer i.v., last of 4 15-min SPECT frames, SUVmean, 17-segment model, n = 5 coNGR, n = 8 co(NGR)4
[4] = 111In-labeled tracer i.v., last of 4 consecutive 15 min SPECT frames

SUV of NGR imaging agent, segment 1. Basal anterior (CD13; [3]): 0.37 ± 0.06 | SUV of NGR imaging agent, segment 2. Basal anteroseptal (CD13; [3]): 0.37 ± 0.05 | SUV of NGR imaging agent, segment 3. Basal inferoseptal (CD13; [3]): 0.40 ± 0.05 | SUV of NGR imaging agent, segment 4. Basal inferior (CD13; [3]): 0.41 ± 0.06 | SUV of NGR imaging agent, segment 5. Basal inferolateral (CD13; [3]): 0.46 ± 0.07 | SUV of NGR imaging agent, segment 6. Basal anterolateral (CD13; [3]): 0.40 ± 0.07 | SUV of NGR imaging agent, segment 7. Mid anterior (CD13; [3]): 0.32 ± 0.04 | SUV of NGR imaging agent, segment 8. Mid anteroseptal (CD13; [3]): 0.36 ± 0.03 | SUV of NGR imaging agent, segment 9. Mid inferoseptal (CD13; [3]): 0.59 ± 0.06 | SUV of NGR imaging agent, segment 10. Mid inferior (CD13; [3]): 0.56 ± 0.08 | SUV of NGR imaging agent, segment 11. Mid inferolateral (CD13; [3]): 0.44 ± 0.07 | SUV of NGR imaging agent, segment 12. Mid anterolateral (CD13; [3]): 0.40 ± 0.05 | SUV of NGR imaging agent, segment 13. Apical anterior (CD13; [3]): 0.54 ± 0.07 | SUV of NGR imaging agent, segment 14. Apical septal (CD13; [3]): 0.80 ± 0.09 | SUV of NGR imaging agent, segment 15. Apical inferior (CD13; [3]): 0.82 ± 0.08 | SUV of NGR imaging agent, segment 16. Apical lateral (CD13; [3]): 0.54 ± 0.06 | SUV of NGR imaging agent, segment 17. Apex (CD13; [3]): 0.76 ± 0.10 | SUV in segments affected by MI (CD13; [4]): 0.57 ± 0.03 | SUV in segments not affected by MI (CD13; [4]): 0.43 ± 0.02
Compound: N=C(N)NCCC[C@@H]1NC(=O)CNC(=O)[C@H](CC(N)=O)NC(=O)[C@H](CSC2CC(=O)N(CC3CCC(C(=O)NCCCC[C@H](NC(=O)C4CCC(CN5C(=O)CC(SC[C@@H]6NC(=O)CNC(=O)[C@H](CCCNC(=N)N)NC(=O)CNC(=O)[C@H](CC(N)=O)NC6=O)C5=O)CC4)C(=O)NCCCC[C@H](NC(=O)[C@H](CCCCNC(=O)C4CCC(CN5C(=O)CC(SC[C@@H]6NC(=O)CNC(=O)[C@H](CCCNC(=N)N)NC(=O)CNC(=O)[C@H](CC(N)=O)NC6=O)C5=O)CC4)NC(=O)C4CCC(CN5C(=O)CC(SC[C@@H]6NC(=O)CNC(=O)[C@H](CCCNC(=N)N)NC(=O)CNC(=O)[C@H](CC(N)=O)NC6=O)C5=O)CC4)C(=O)N[C@@H](CCCCNC(=O)[C@@H](N)CSC4CC(=O)N(CC5CCC(C(=O)NCCCCC(C(=O)O)N(CCN(CC(=O)O)CC(=O)O)CCN(CC(=O)O)CC(=O)O)CC5)C4=O)C(N)=O)CC3)C2=O)NC(=O)CNC1=O (some centres unmarked) [co(NGR)4]
logP2 [1]: −3.64 ± 0.03 | remaining at 50 min (in vitro): 25.3% | kidney uptake [2]: Substantial kidney uptake | urinary excretion ([2]; iv): 54.9 ± 9.1 % ID/g
